Measurements taken from ChEMBL document CHEMBL1641504, “Characterization and anions inhibition studies of an α-carbonic anhydrase from the teleost fish Dicentrarchus labrax” (Bioorg Med Chem, 2011).

Tests used:
[1] = target: Carbonic anhydrase 5A, mitochondrial (Homo sapiens, UniProt P35218)
Description: Inhibition of human carbonic anhydrase 5 by Lineweaver-Burk curves

[2] = target: Carbonic anhydrase 1 (Homo sapiens, UniProt P00915)
Description: Inhibition of human carbonic anhydrase 1 by Lineweaver-Burk curves

[3] = target: Carbonic anhydrase 9 (Homo sapiens, UniProt Q16790)
Description: Inhibition of human carbonic anhydrase 9 by Lineweaver-Burk curves

[4] = target: Carbonic anhydrase 4 (Homo sapiens, UniProt P22748)
Description: Inhibition of human carbonic anhydrase 4 by Lineweaver-Burk curves

[5] = target: Carbonic anhydrase 2 (Homo sapiens, UniProt P00918)

Sequence of Carbonic anhydrase 4 (P22748 whole entry): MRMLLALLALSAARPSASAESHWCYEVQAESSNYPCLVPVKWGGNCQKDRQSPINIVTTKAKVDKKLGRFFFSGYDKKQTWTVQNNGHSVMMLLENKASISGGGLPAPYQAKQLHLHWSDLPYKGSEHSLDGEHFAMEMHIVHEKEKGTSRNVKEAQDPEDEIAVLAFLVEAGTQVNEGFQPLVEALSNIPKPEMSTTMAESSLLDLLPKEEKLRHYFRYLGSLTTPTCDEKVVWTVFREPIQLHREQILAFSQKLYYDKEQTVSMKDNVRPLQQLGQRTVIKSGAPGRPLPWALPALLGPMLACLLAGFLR
Sequence of Carbonic anhydrase 5A, mitochondrial (P35218 whole entry): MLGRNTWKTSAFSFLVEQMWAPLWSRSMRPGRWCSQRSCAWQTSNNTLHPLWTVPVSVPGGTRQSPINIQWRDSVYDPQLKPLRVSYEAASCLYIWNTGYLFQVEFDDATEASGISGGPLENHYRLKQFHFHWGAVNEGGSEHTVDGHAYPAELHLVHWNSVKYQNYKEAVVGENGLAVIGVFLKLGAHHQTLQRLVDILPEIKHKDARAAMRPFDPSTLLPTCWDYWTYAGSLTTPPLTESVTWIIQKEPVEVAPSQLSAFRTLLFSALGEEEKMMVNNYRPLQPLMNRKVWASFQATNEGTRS
Sequence of Carbonic anhydrase 1 (P00915 whole entry): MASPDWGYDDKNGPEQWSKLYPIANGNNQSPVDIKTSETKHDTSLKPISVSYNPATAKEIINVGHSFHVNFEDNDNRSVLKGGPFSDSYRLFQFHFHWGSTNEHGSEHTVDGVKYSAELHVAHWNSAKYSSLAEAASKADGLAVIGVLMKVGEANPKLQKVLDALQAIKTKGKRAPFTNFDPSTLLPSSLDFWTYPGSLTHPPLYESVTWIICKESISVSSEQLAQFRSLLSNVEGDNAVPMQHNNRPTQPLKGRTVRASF

| Compound | Ki [1] | Ki [2] | Ki [3] | Ki [4] | Ki [5] |
| --- | --- | --- | --- | --- | --- |
| [Br-].[K+] [POTASSIUM BROMIDE] | 50 mM | 4 mM | 16 mM | 0.09 mM |  |
| [Cl-].[K+] [POTASSIUM CHLORIDE] | 156 mM | 6 mM | 33 mM | 0.09 mM | > 200 mM |
| [F-].[K+] [POTASSIUM FLUORIDE] | 241 mM |  | 48 mM | 0.07 mM |  |
| [I-].[K+] [POTASSIUM IODIDE] | 25 mM | 0.3 mM | 7 mM | 0.08 mM |  |
| O=[N+]([O-])[O-].[K+] [POTASSIUM NITRATE] | 16 mM | 7 mM | 46 mM | 58.7 mM |  |
| [N-]=[N+]=[N-] [SODIUM AZIDE] | 0.3 mM |  | 0.005 mM |  |  |
| O=NO [SODIUM NITRITE] | 16 mM |  |  |  |  |
| O=S(=O)([O-])[O-].[Na+].[Na+] [SODIUM SULFATE ANHYDROUS] | 680 mM |  |  | 9 mM |  |
| N#C[S-].[Na+] [THIOCYANATE SODIUM] | 0.74 mM |  | 0.13 mM | 39 mM |  |
